The values below come from US20230399312A1, “SUBSTITUTED PYRIMIDINES AND METHODS OF USE” (THERAVANCE BIOPHARMA R&D IP, LLC, priority 2020, published 2023).

Where only a bound is given, the exact number is not on record here.

Assay [1] has as its target T1, recombinant human ALK5 (TGF-βR1) protein (Homo sapiens, UniProt P36897).
T1 construct: purchased Life Technologies PR9075A
T1 sequence (P36897 34-503): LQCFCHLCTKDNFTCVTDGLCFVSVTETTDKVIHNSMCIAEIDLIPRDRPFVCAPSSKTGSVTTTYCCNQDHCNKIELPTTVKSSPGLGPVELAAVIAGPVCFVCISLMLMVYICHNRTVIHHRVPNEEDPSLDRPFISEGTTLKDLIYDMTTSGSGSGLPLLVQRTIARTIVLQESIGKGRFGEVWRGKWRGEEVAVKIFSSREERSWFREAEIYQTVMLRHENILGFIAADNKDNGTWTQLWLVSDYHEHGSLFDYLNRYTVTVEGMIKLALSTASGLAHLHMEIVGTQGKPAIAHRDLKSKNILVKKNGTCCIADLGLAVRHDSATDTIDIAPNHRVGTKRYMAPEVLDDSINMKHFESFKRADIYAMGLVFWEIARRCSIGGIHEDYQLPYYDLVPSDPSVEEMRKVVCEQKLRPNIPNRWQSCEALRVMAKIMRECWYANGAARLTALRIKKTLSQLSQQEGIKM
Nature of the assay: Biochemical ALK5 (TGF-βR1) assay to measure pKi (LANCE Ultra ULight kinase assay). Conditions: apparent pKi, converted from pIC50 by Cheng-Prusoff. In outline:
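Dose-response series of each compound were preincubated with the kinase for 60 minutes at room temperature. Phosphorylation proceeded for 60 minutes at 37 °C after ATP addition, was quenched with EDTA, and was detected with a europium anti-phospho-Thr1342 antibody by TR-FRET; pKi was calculated from pIC50.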

Assay [2] deals with TGF-β-stimulated SMAD3 phosphorylation in BEAS-2B cells. Nature of the assay: Cellular ALK5 potency assay, inhibition of TGF-β stimulated pSMAD3 formation in BEAS-2B cells. Format: cell-based. Conditions: Homo sapiens, pSMAD3, TGF-β 10 ng/mL, read-out: BEAS2B pIC50 (converted). In outline: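 Reported as pIC50, potency reflects dose-dependent loss of AlphaLISA pSMAD3 signal versus TGF-β-stimulated, compound-free BEAS-2B cells. Compound was applied for 1 h in BSA-containing HBSS buffer before a 30-min challenge with TGF-β at 10 ng/mL final.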

Turning to `Cc1cccc(-c2nccc(Nc3ccnc(Nc4cccc(S(=O)(=O)N5CCNCC5)c4)n3)n2)n1` [Compound 306, N4-[2-(6-methyl-2-pyridyl)pyrimidin-4-yl]-N2-(3-piperazin-1-ylsulfonylphenyl)pyrimidine-2,4-diamine], the Ki in assay [1] was 3.98 to 31.6 nM. Moreover, the IC50 in assay [2] was 25.1 to 158 nM.
The corresponding values for `COC(=O)[C@@H]1CN(c2ccc(Nc3nccc(Nc4ccnc(-c5cccc(C)n5)n4)n3)cc2)CCN1` [Compound 307, methyl (2S)-4-[4-[[4-[[2-(6-methyl-2-pyridyl)pyrimidin-4-yl]amino]pyrimidin-2-yl]amino]phenyl]piperazine-2-carboxylate] are 0.0398 to 0.316 nM and 25.1 to 158 nM.
The matching figures for `Cc1cccc(-c2nccc(Nc3ccnc(Nc4cccc(C(=O)O[C@H]5CCN(C)C5)c4)n3)n2)n1` [Compound 308, [(3S)-1-methylpyrrolidin-3-yl] 3-[[4-[[2-(6-methyl-2-pyridyl)pyrimidin-4-yl]amino]pyrimidin-2-yl]amino]benzoate]: 0.398 to 3.16 nM and 200 to 1260 nM.
Take `Cc1cccc(-c2nccc(Nc3ccnc(Nc4ccc(NCC5(CO)CNC5)cc4)n3)n2)n1` [Compound 310, [3-[[4-[[4-[[2-(6-methyl-2-pyridyl)pyrimidin-4-yl]amino]pyrimidin-2-yl]amino]anilino]methyl]azetidin-3-yl] methanol]: in assay [1], the Ki was 0.398 to 3.16 nM. For the same molecule, the IC50 in assay [2] is 25.1 to 158 nM.
The corresponding values for `Cc1cccc(-c2nccc(Nc3ccnc(Nc4ccc(C)c(CN5CCN(C)CC5)c4)n3)n2)n1` [Compound 311, N2-[4-methyl-3-[(4-methylpiperazin-1-yl)methyl]phenyl]-N4-[2-(6-methyl-2-pyridyl)pyrimidin-4-yl]pyrimidine-2,4-diamine] are 0.0398 to 0.316 nM and 25.1 to 158 nM.
The matching figures for `COC(=O)c1cc(Nc2nccc(Nc3ccnc(-c4cccc(C)n4)n3)n2)ccc1N1CCNCC1` [Compound 312, methyl 5-[[4-[[2-(6-methyl-2-pyridyl)pyrimidin-4-yl]amino]pyrimidin-2-yl]amino]-2-piperazin-1-yl-benzoate]: 0.0398 to 0.316 nM and 25.1 to 158 nM.
The matching figures for `Cc1cccc(-c2nccc(Nc3ccnc(Nc4ccc(CN5CCC(C(=O)O[C@@H]6CCNC6)CC5)cc4)n3)n2)n1` [Compound 313, [(3R)-pyrrolidin-3-yl] 1-[[4-[[4-[[2-(6-methyl-2-pyridyl)pyrimidin-4-yl]amino]pyrimidin-2-yl]amino]phenyl]methyl] piperidine-4-carboxylate]: 0.0398 to 0.316 nM and 25.1 to 158 nM.
In the case of `Fc1cc(F)c(-c2nccc(Nc3ccnc(Nc4ccc(N5CCC(N6CCCC6)CC5)cc4)n3)n2)cc1Cl` [Compound 314, N4-[2-(5-chloro-2,4-difluoro-phenyl)pyrimidin-4-yl]-N2-[4-(4-pyrrolidin-1-yl-1-piperidyl)phenyl]pyrimidine-2,4-diamine], the Ki in assay [1] is 0.0398 to 0.316 nM. For the same molecule, the IC50 in assay [2] is 25.1 to 158 nM.
The matching figures for `Cc1cccc(-c2nccc(Nc3ccnc(Nc4cccc(N)c4)n3)n2)n1` [Compound 315, N2-(3-aminophenyl)-N4-[2-(6-methyl-2-pyridyl)pyrimidin-4-yl]pyrimidine-2,4-diamine]: 0.0398 to 0.316 nM and at most 20 nM.
With `CC(=O)Nc1ccc(Nc2nccc(Nc3ccnc(-c4cccc(C)n4)n3)n2)cc1` [Compound 316, N-[4-[[4-[[2-(6-methyl-2-pyridyl)pyrimidin-4-yl]amino]pyrimidin-2-yl]amino]phenyl]acetamide], the Ki in assay [1] was 0.398 to 3.16 nM. In addition, the IC50 in assay [2] was 25.1 to 158 nM.
The matching figures for `Cc1cccc(-c2nccc(Nc3ccnc(Nc4ccc(C(=O)N5CCN(C(C)C)CC5)cc4)n3)n2)n1` [Compound 317, (4-isopropylpiperazin-1-yl)-[4-[[4-[[2-(6-methyl-2-pyridyl)pyrimidin-4-yl]amino]pyrimidin-2-yl]amino]phenyl]methanone]: 0.0398 to 0.316 nM and 25.1 to 158 nM.
On to `Cc1cccc(-c2nccc(Nc3ccnc(Nc4ccc(CN5CCCC(C(=O)OCC6CNC6)C5)cc4)n3)n2)n1` (stereo not drawn) [Compound 318, azetidin-3-ylmethyl 1-[[4-[[4-[[2-(6-methyl-2-pyridyl)pyrimidin-4-yl]amino]pyrimidin-2-yl]amino]phenyl]methyl] piperidine-3-carboxylate], for which, in assay [1], the Ki was 0.0398 to 0.316 nM. Further, in assay [2], the IC50 is 25.1 to 158 nM.
The matching figures for `Cc1cccc(-c2nccc(Nc3ccnc(Nc4ccc(CN5CCCC(C(=O)NC6CCNCC6)C5)cc4)n3)n2)n1` (stereo not drawn) [Compound 320, 1-[[4-[[4-[[2-(6-methyl-2-pyridyl)pyrimidin-4-yl]amino]pyrimidin-2-yl]amino]phenyl]methyl]-N-(4-piperidyl)piperidine-3-carboxamide]: 0.0398 to 0.316 nM and 25.1 to 158 nM.
With `Cc1cccc(-c2nccc(Nc3ccnc(Nc4ccc(NCCO)cc4)n3)n2)n1` [Compound 321, 2-[4-[[4-[[2-(6-methyl-2-pyridyl)pyrimidin-4-yl]amino]pyrimidin-2-yl]amino]anilino]ethanol], the Ki in assay [1] is 0.398 to 3.16 nM. In addition, the IC50 in assay [2] is 25.1 to 158 nM.
In the case of `Cc1cccc(-c2nccc(Nc3ccnc(Nc4cccc(N5CCNCC5)c4)n3)n2)n1` [Compound 322, N4-[2-(6-methyl-2-pyridyl)pyrimidin-4-yl]-N2-(3-piperazin-1-ylphenyl)pyrimidine-2,4-diamine], the Ki in assay [1] is 0.0398 to 0.316 nM. For the same molecule, the IC50 in assay [2] was 25.1 to 158 nM.
The matching figures for `Cc1cccc(-c2nccc(Nc3ccnc(Nc4nc(C(=O)O[C@H]5CCN(C)C5)cs4)n3)n2)n1` [Compound 323, [(3S)-1-methylpyrrolidin-3-yl] 2-[[4-[[2-(6-methyl-2-pyridyl)pyrimidin-4-yl]amino]pyrimidin-2-yl]amino]thiazole-4-carboxylate]: 0.398 to 3.16 nM and 25.1 to 158 nM.
The matching figures for `Cc1cccc(-c2nccc(Nc3ccnc(Nc4ccc(N5CCC(N)CC5)cc4)n3)n2)n1` [Compound 324, N2-[4-(4-amino-1-piperidyl)phenyl]-N4-[2-(6-methyl-2-pyridyl)pyrimidin-4-yl]pyrimidine-2,4-diamine]: 0.0398 to 0.316 nM and 25.1 to 158 nM.
Take `Cc1cccc(-c2nccc(Nc3ccnc(Nc4ncc(C(=O)OC5CNC5)s4)n3)n2)n1` [Compound 325, azetidin-3-yl 2-[[4-[[2-(6-methyl-2-pyridyl)pyrimidin-4-yl]amino]pyrimidin-2-yl]amino]thiazole-5-carboxylate]: the Ki in assay [1] is 3.98 to 31.6 nM. In addition, the IC50 in assay [2] is 25.1 to 158 nM.
The matching figures for `CN1CCN(C2CCN(c3ccc(Nc4nccc(Nc5ccnc(-c6cc(Cl)c(F)cc6F)n5)n4)cc3)CC2)CC1` [Compound 326, N4-[2-(5-chloro-2,4-difluoro-phenyl)pyrimidin-4-yl]-N2-[4-[4-(4-methylpiperazin-1-yl)-1-piperidyl]phenyl]pyrimidine-2,4-diamine]: 0.0398 to 0.316 nM and 200 to 1260 nM.
The corresponding values for `Cc1cccc(-c2nccc(Nc3ccnc(Nc4csc(C(=O)NC5CNC5)c4)n3)n2)n1` [Compound 327, N-(azetidin-3-yl)-4-[[4-[[2-(6-methyl-2-pyridyl)pyrimidin-4-yl]amino]pyrimidin-2-yl]amino]thiophene-2-carboxamide] are at most 0.0316 nM and 25.1 to 158 nM.
The corresponding values for `Cc1cccc(-c2nccc(Nc3ccnc(Nc4ccc(-c5cn(C)nn5)cc4)n3)n2)n1` [Compound 328, N4-[2-(6-methyl-2-pyridyl)pyrimidin-4-yl]-N2-[4-(1-methyltriazol-4-yl)phenyl]pyrimidine-2,4-diamine] are 0.0398 to 0.316 nM and at most 20 nM.
As for `Cc1cccc(-c2nccc(Nc3ccnc(Nc4nc(CN5CCN[C@@H](CO)C5)cs4)n3)n2)n1` [Compound 329, [(2R)-4-[[2-[[4-[[2-(6-methyl-2-pyridyl)pyrimidin-4-yl]amino]pyrimidin-2-yl]amino]thiazol-4-yl]methyl]piperazin-2-yl]methanol], in assay [1], the Ki is 0.398 to 3.16 nM. For the same molecule, the IC50 in assay [2] was 25.1 to 158 nM.
As for `Cc1cccc(-c2nccc(Nc3ccnc(Nc4ccc(NC(=O)N5CCN(C)CC5)cc4)n3)n2)n1` [Compound 330, 4-methyl-N-[4-[[4-[[2-(6-methyl-2-pyridyl)pyrimidin-4-yl]amino]pyrimidin-2-yl]amino]phenyl]piperazine-1-carboxamide], in assay [1], the Ki was 0.0398 to 0.316 nM. Further, the IC50 in assay [2] was 25.1 to 158 nM.
As to `Cc1cccc(-c2nccc(Nc3ccnc(Nc4ccc(C5=CCNC5)cc4)n3)n2)n1` [Compound 331, N2-[4-(2,5-dihydro-1H-pyrrol-3-yl)phenyl]-N4-[2-(6-methyl-2-pyridyl)pyrimidin-4-yl]pyrimidine-2,4-diamine], the Ki in assay [1] is at most 0.0316 nM. Moreover, the IC50 in assay [2] was at most 20 nM.
